Earlier results, collected in patent US9029312B2, “Compositions for cleaning applicators for hair removal compositions” (priority 2012, dated 2015).

What was measured:
[1] = Bhargava & Leonard 1996

## Oc1cc(Cl)ccc1Oc1ccc(Cl)cc1Cl [Triclosan, 5-Chloro-2-(2,4-dichlorophenoxy) phenol]
[1]
  carcinogenic, mutagenic or teratogenic effects: not found to have any carcinogenic, mutagenic or teratogenic effects
  toxicity to humans and other mammals: relatively non-toxic
other
  solubility in mineral oil: relatively high solubility in mineral oil
